SMILES strings stand for the structures. pIC50, pKi: −log10 of the molar value.

The test system of test [1] is JAK1-dependent STAT6 phosphorylation downstream of IL-13 stimulation in BEAS-2B human bronchial epithelial cells. The test can be described thus: JAK1 pathway assay in BEAS-2B cells (IL-13 stimulated STAT6 phosphorylation, MSD). Format: cell-based. To be noted: read-out: P-STAT6 BEAS2B + IL13 IC50. The method in brief: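 BEAS-2B human bronchial epithelial cells, plated the day before in complete growth medium, were preincubated with compound for 1 hr at 37° C (0.2% DMSO final), then stimulated with IL-13 at its EC90 for 15 min. STAT6 phosphorylation in lysates was read by MSD; EC50 was taken as 50% inhibition versus DMSO control.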

The target in test [2] is T1, isolated recombinant JAK2 kinase domain (Homo sapiens, UniProt O60674).
T1 construct: The activity of the isolated recombinant JAK1 and JAK2 kinase domain was measured
T1 sequence (O60674 849-1124 limits assumed): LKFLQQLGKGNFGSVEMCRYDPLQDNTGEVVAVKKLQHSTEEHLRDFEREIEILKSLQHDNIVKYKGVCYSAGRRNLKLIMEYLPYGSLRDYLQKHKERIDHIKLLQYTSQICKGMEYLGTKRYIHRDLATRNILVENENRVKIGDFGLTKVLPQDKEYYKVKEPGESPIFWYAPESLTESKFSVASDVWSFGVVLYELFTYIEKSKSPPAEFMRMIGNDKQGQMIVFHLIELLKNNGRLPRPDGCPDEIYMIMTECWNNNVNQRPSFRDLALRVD
The test can be described thus: JAK2 enzyme assay (Caliper LabChip, Ki). The following applies: 25 μM ATP. Format: biochemical. The method in brief:
(§1)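 Recombinant JAK1 or JAK2 kinase domain phosphorylating a 5-carboxyfluorescein-labelled JAK3-derived peptide, 30 min at 22° C, stopped with EDTA. Phosphorylated fraction of substrate quantified by Caliper LabChip microfluidic separation. Ki from Morrison tight-binding model corrected for ATP competition (Ki=Ki,app/(1+[ATP]/Km,app)).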

Test [3] deals with T2, isolated recombinant JAK1 kinase domain (Homo sapiens, UniProt P23458).
T2 construct: The activity of the isolated recombinant JAK1 and JAK2 kinase domain was measured
T2 sequence (P23458 875-1153 limits assumed): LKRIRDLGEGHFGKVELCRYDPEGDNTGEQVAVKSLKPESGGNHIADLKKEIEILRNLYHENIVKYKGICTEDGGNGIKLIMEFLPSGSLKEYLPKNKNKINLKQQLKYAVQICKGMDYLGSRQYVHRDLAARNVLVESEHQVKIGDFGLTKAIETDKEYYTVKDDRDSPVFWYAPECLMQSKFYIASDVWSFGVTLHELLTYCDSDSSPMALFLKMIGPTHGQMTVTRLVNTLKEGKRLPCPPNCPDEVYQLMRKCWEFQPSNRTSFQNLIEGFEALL
The test can be described thus: JAK1 enzyme assay (Caliper LabChip, Ki). Format: biochemical. The following applies: recombinant JAK1 kinase domain, 25 μM ATP. A digest of the protocol: as §1

In the case of `COC(=O)N1CCN(CC2CCN(C(=O)Cn3cc(NC(=O)c4cnn5cccnc45)c(-c4cc(SC(C)C)ccc4OC(F)F)n3)CC2)CC1` [Example 150, methyl 4-[[1-(2-[3-[2-(difluoromethoxy)-5-(propan-2-ylsulfanyl)phenyl]-4-[pyrazolo[1,5-a]pyrimidine-3-amido]-1H-pyrazol-1-yl]acetyl)piperidin-4-yl]methyl]piperazine-1-carboxylate], the pIC50 – broadly, −log10 of the IC50, conventionally taken in molar units – in test [1] is 7.82. Moreover, the pKi (in general, the Ki on a negative log10 scale, so that one unit is a factor of ten) was 8.85 in test [2] and 9.22 in test [3].
The like results for `CC(C)Sc1ccc(OC(F)F)c(-c2nn(CC(=O)N3CCC(N4CC(C#N)C4)CC3)cc2NC(=O)c2cnn3cccnc23)c1` [Example 129, N-(1-[2-[4-(3-cyanoazetidin-1-yl)piperidin-1-yl]-2-oxoethyl]-3-[2-(difluoromethoxy)-5-(propan-2-ylsulfanyl)phenyl]-1H-pyrazol-4-yl)pyrazolo[1,5-a]pyrimidine-3-carboxamide] were, in that order, 7.59, 9.00 and 9.38.
The like results for `CNC(=O)[C@@H]1CCCN1CC1CCN(C(=O)Cn2cc(NC(=O)c3cnn4cccnc34)c(-c3cc(SC)ccc3OC(F)F)n2)CC1` [Example 44, N-[3-[2-(difluoromethoxy)-5-methylsulfanyl-phenyl]-1-[2-[4-[[(2S)-2-(methylcarbamoyl)pyrrolidin-1-yl]methyl]-1-piperidyl]-2-oxo-ethyl]pyrazol-4-yl]pyrazolo[1,5-a]pyrimidine-3-carboxamide] were, in that order, 7.14, 9.14 and 9.42.
On to `CSc1ccc(OC(F)F)c(-c2nn(CC(=O)N3CCC(CN4CCN(C(=O)CN(C)C)CC4)CC3)cc2NC(=O)c2cnn3cccnc23)c1` [Example 74, N-[3-[2-(difluoromethoxy)-5-methylsulfanyl-phenyl]-1-[2-[4-[[4-[2-(dimethylamino)acetyl]piperazin-1-yl]methyl]-1-piperidyl]-2-oxo-ethyl]pyrazol-4-yl]pyrazolo[1,5-a]pyrimidine-3-carboxamide], for which the pIC50 in test [1] was 7.30. The results for the pKi in test [2] and in test [3] were 9.24 and 9.52, respectively.
In the case of `CSc1ccc(OC(F)F)c(-c2nn(CC(=O)N3CCC(N4CCC[C@H]4C(=O)N(C)C)CC3)cc2NC(=O)c2cnn3cccnc23)c1` [Example 47, N-[3-[2-(difluoromethoxy)-5-methylsulfanyl-phenyl]-1-[2-[4-[(2S)-2-(dimethylcarbamoyl)pyrrolidin-1-yl]-1-piperidyl]-2-oxo-ethyl]pyrazol-4-yl]pyrazolo[1,5-a]pyrimidine-3-carboxamide], the pIC50 in test [1] was 6.46. The pKi is 8.89 in test [2] and 9.28 in test [3].
The like results for `CSc1ccc(OC(F)F)c(-c2nn(CC(=O)N3CCC(N(C)CCC#N)CC3)cc2NC(=O)c2cnn3cccnc23)c1` [Example 2, N-[1-[2-[4-[2-cyanoethyl(methyl)amino]-1-piperidyl]-2-oxo-ethyl]-3-[2-(difluoromethoxy)-5-methylsulfanyl-phenyl]pyrazol-4-yl]pyrazolo[1,5-a]pyrimidine-3-carboxamide] were, in that order, 7.60, 9.38 and 9.55.
The like results for `CSc1ccc(OC(F)F)c(-c2nn(CCN[C@@H]3CCCOC3)cc2NC(=O)c2cnn3cccnc23)c1` [Example 38, N-[3-[2-(difluoromethoxy)-5-methylsulfanyl-phenyl]-1-[2-[[(3R)-tetrahydropyran-3-yl]amino]ethyl]pyrazol-4-yl]pyrazolo[1,5-a]pyrimidine-3-carboxamide] were, in that order, 7.70, 9.72 and 9.64.
Consider `CSc1ccc(OC(F)F)c(-c2nn(CC(=O)N3CCC(N(C)CC(=O)N(C)C)CC3)cc2NC(=O)c2cnn3cccnc23)c1` [Example 13, N-[3-[2-(difluoromethoxy)-5-methylsulfanyl-phenyl]-1-[2-[4-[[2-(dimethylamino)-2-oxo-ethyl]-methyl-amino]-1-piperidyl]-2-oxo-ethyl]pyrazol-4-yl]pyrazolo[1,5-a]pyrimidine-3-carboxamide], for which the pIC50 in test [1] is 7.24. The pKi is 9.05 in test [2] and 9.36 in test [3].
Consider `CC(C)Sc1ccc(OC(F)F)c(-c2nn(CC(=O)N3CCN(CCCC#N)CC3)cc2NC(=O)c2cnn3cccnc23)c1` [Example 103, N-[1-[2-[4-(3-cyanopropyl)piperazin-1-yl]-2-oxo-ethyl]-3-[2-(difluoromethoxy)-5-isopropylsulfanyl-phenyl]pyrazol-4-yl]pyrazolo[1,5-a]pyrimidine-3-carboxamide], for which the pIC50 in test [1] is 7.39. Besides, the pKi in test [2] is 9.12; in test [3], 9.48.
The like results for `CSc1ccc(OC(F)F)c(-c2nn(CC(=O)N3CCC(N(C)[C@H]4CCOC4)CC3)cc2NC(=O)c2cnn3cccnc23)c1` [Example 49, N-[3-[2-(difluoromethoxy)-5-methylsulfanyl-phenyl]-1-[2-[4-[methyl-[(3S)-tetrahydrofuran-3-yl]amino]-1-piperidyl]-2-oxo-ethyl]pyrazol-4-yl]pyrazolo[1,5-a]pyrimidine-3-carboxamide] were, in that order, 7.82, 9.21 and 9.55.
With `CCSc1ccc(OC(F)F)c(-c2nn(CC(=O)N3CCC(N4CCOCC4)CC3)cc2NC(=O)c2cnn3cccnc23)c1` [Example 193], the pIC50 in test [1] is 7.77. The pKi was 9.24 in test [2] and 9.44 in test [3].
In the case of `CSc1ccc(OC(F)F)c(-c2nn(CC(=O)N3CCC(NCC(C)(C)C#N)CC3)cc2NC(=O)c2cnn3cccnc23)c1` [Example 20, N-[1-[2-[4-[(2-cyano-2-methyl-propyl)amino]-1-piperidyl]-2-oxo-ethyl]-3-[2-(difluoromethoxy)-5-methylsulfanyl-phenyl]pyrazol-4-yl]pyrazolo[1,5-a]pyrimidine-3-carboxamide], the pIC50 in test [1] is 7.96. Besides, the pKi in test [2] was 9.48; in test [3], 9.70.
For `CSc1ccc(OC(F)F)c(-c2nn([C@H]3CCCN(C)C3)cc2NC(=O)c2cnn3cccnc23)c1` [Example 12, (S)—N-(3-(2-(difluoromethoxy)-5-(methylthio)phenyl)-1-(1-methylpiperidin-3-yl)-1H-pyrazol-4-yl)pyrazolo[1,5-a]pyrimidine-3-carboxamide] the same measures were 8.22, 9.49 and 9.39.
Turning to `CSc1ccc(OC(F)F)c(-c2nn(CC(=O)N3CCC(N4CCC[C@@H](C#N)C4)CC3)cc2NC(=O)c2cnn3cccnc23)c1` [Example 58, N-[1-(2-[4-[(3R)-3-cyanopiperidin-1-yl]piperidin-1-yl]-2-oxoethyl)-3-[2-(difluoromethoxy)-5-(methylsulfanyl)phenyl]-1H-pyrazol-4-yl]pyrazolo[1,5-a]pyrimidine-3-carboxamide], in test [1], the pIC50 was 7.89. Also, the pKi in test [2] was 9.48; in test [3], 9.70.
In the case of `CSc1ccc(OC(F)F)c(-c2nn(Cc3cn(C4CCN(C5CCOCC5)CC4)nn3)cc2NC(=O)c2cnn3cccnc23)c1` [Example 81, N-(3-(2-(difluoromethoxy)-5-(methylthio)phenyl)-1-((1-(1-(tetrahydro-2H-pyran-4-yl)piperidin-4-yl)-1H-1,2,3-triazol-4-yl)methyl)-1H-pyrazol-4-yl)pyrazolo[1,5-a]pyrimidine-3-carboxamide], in test [1], the pIC50 was 8.09. The pKi in test [2] is 9.64; in test [3], 9.46.
